Reference: US6060471A, “Reduction of hair growth” (priority 1998, dated 2000)
Like-named read-outs stand apart in the source and are kept apart here.

Key:
[1] = tested on: 18 kD human hair follicle protein (eIF-5A); assay: Incorporation of 3H-spermidine into 18 kD human hair follicle proteins; type: cell-based; conditions: inhibitor 0.2 mM, follicles cultured 48 hours, 3H-spermidine 6 hours; for % Reduction of 3H-spermidine incorporation: 2880 min, 200 µM
Method: Human hair follicles derived from face lift procedures were isolated and placed in Williams E medium containing antibiotics, glutamine, insulin and hydrocortisone. Follicles were cultured for 48 hours at 37° C. in the presence of 1,6-diaminohexane (0.2 mM), 1,8-diaminooctane (0.2 mM), ciclopiroxolamine (0.2 mM) or hydralazine (0.2 mM). Control follicles were maintained in Williams E without any inhibitors present. At the end of the 48 hour period, ^3 H-spermidine […] was added to the culture for 6 hours. The hair follicles were washed in phosphate buffered saline to remove nonincorporated ^3 H-spermidine, and the follicles were homogenized in a buffer, pH 7.4, containing Tris (50 mM) and sucrose (0.5 mM). Hair follicle protein was applied to a 10% polyacrylamide gel. After the proteins were separated on the gel using a constant voltage (125 V), they were stained with coomassie blue. […] The protein bands were cutout of the gel and solubilized with BTS-450 (Beckman). The liquid scintillation fluid Econoscint (12 mL) was added to each sample, which was analyzed for ^3 H-spermidine incorporation by scintillation spectrometry.

[2] = tested on: flank organs of Golden Syrian hamsters (hair growth); assay: Golden Syrian hamster assay (flank organ hair mass); type: in vivo; conditions: for inhibition in vivo at 10 %: read-out: % Inhibition (hair mass)
Text: Male intact Golden Syrian hamsters are considered acceptable models for human beard hair growth in that they display oval shaped flank organs, one on each side, each about 8 mm. in major diameter, which grow thick black and coarse hair similar to human beard hair. These organs produce hair in response to androgens in the hamster. To evaluate the effectiveness of a composition including an inhibitor of the hypusine biosynthetic pathway, the flank organs of each of a group of hamsters are depilated by applying a thioglycolate based chemical depilatory (Surgex) and/or shaved. To one organ of each animal 10 μl. of vehicle alone once a day is applied, while to the other organ of each animal an equal amount of vehicle containing an inhibitor of the hypusine biosynthetic pathway is applied. After thirteen applications (one application per day for five days a week), the flank organs are shaved and the amount of recovered hair (hair mass) from each is weighed. Percent-reduction of hair growth is calculated by subtracting the hair mass (mg) value of the test compound treated side from the hair mass value of the vehicle treated side; the delta value obtained is then divided by the hair mass value of the vehicle treated side, and the resultant number is multiplied by 100.
The above-described assay will be referred to herein as the "Golden Syrian hamster" assay.
This vehicle also was used in the testing described below.

[3] = Table I, dose 10%, topical, 13 applications, pH per compound 6.0-8.5
[4] = Mesocricetus auratus, Table I, dose 10%, topical, 13 applications, pH per compound 6.0-8.5

| SMILES | Incorporation of 3H-spermidine [1] | % Reduction of 3H-spermidine incorporation [1] | Hair Mass, Treated [2, 3] | inhibition in vivo at 10 % [2, 4] | further results |
| --- | --- | --- | --- | --- | --- |
| NCCCCCCN [1,6-Diaminohexane, 1,6-diaminohexane] | < 1.0 pmol/mg protein | 100% | 1.50 ± .20 mq |  | % Reduction of 3H-spermidine incorporation ([1]; listed as 1,6-diaminohexane): 47-100%; inhibition in vivo at 10 % ([2]; Mesocricetus auratus, topical): 51 ± 5% |
| NCCCCCCCN [1,7-Diaminoheptane, 1,7-diaminoheptane] |  |  | 0.80 ± .11 mq | 67 ± 4% |  |
| NCCCCCCCCN [1,8-Diaminooctane, 1,8-diaminooctane] | < 1.0 pmol/mg protein | 100% | 0.70 ± .12 mq | 74 ± 6% | % Reduction of 3H-spermidine incorporation ([1]; listed as 1,8-diaminooctane): 47-100%; inhibition in vivo at 2 % ([2]; Mesocricetus auratus, topical, Table II, dose 2%, pH 9.0): 24 ± 8%; inhibition in vivo at 5 % ([2]; Mesocricetus auratus, topical, Table II, dose 5%, pH 9.0): 48 ± 10%; inhibition in vivo at 10 % ([2]; Mesocricetus auratus, topical, Table II, dose 10%, pH 8.0): 74 ± 6%; Hair Mass, Treated ([2]; Table II, dose 2%, pH 9.0): 1.88 ± .25 mg; Hair Mass, Treated ([2]; Table II, dose 5%, pH 9.0): 1.86 ± .37 mg; Hair Mass, Treated ([2]; Table II, dose 10%, pH 8.0): 0.70 ± .12 mg |
| NCCCCCCCCCN [1,9-Diaminononane, 1,9-diaminononane] |  |  | 1.27 ± .56 mq | 50 ± 13% |  |
| NCCCCCN [Cadaverine, cadaverine] |  |  | 1.91 ± .15 mq | 43 ± 4% |  |
| Cc1cc(C2CCCCC2)n(O)c(=O)c1 [Ciclopiroxolamine, ciclopiroxolamine] | < 1.0 pmol/mg protein | 100% |  |  | % Reduction of 3H-spermidine incorporation ([1]; listed as ciclopiroxolamine): 47-100%; inhibition in vivo at 10 % ([2]; Mesocricetus auratus, topical, Table III, dose 10%, pH 9.0): 44%; % Inhibition (hair mass) ([2]; Table III, dose 10%, pH 9.0): 44 ± 17%; Hair Mass, Treated ([2]; Table III, dose 10%, pH 9.0): 0.92 ± .21 mg |
| NNc1nncc2ccccc12 [Hydralazine, hydralazine] | 10.3 pmol/mg protein | 47% |  |  | inhibition at 200 µM ([1]; Homo sapiens, 48 h, read-out: % Reduction of 3H-spermidine incorporation): 47 to 100%; inhibition in vivo at 5 % ([2]; Mesocricetus auratus, topical, Table III, dose 5%, pH 5.0): 33%; % Inhibition (hair mass) ([2]; Table III, dose 5%, pH 5.0): 33 ± 7%; Hair Mass, Treated ([2]; Table III, dose 5%, pH 5.0): 1.38 ± .14 mg |
| NCCCCN(CCCN)Cc1ccccc1 [N^4 -Benzylspermidine, N^4 -benzyl-spermidine] |  |  | 1.05 ± .12 mq | 62 ± 4% |  |
